Data: US7479492B2, “Use combined 5-HT1A agonists and selective serotonin reuptake inhibitors” (Merck Patent GmbH, priority 2000, dated 2009)

Legend:
[1] = system: writhing response induced by phenylbenzoquinone (PBQ) or acetic acid; assay: Phenylbenzoquinone and acetic writhing tests in mice; format: in vivo, mouse; settings: 30 mg/kg p.o., PBQ 1.25 mg/kg i.p. or acetic acid 0.5% i.p.
Procedure: 5. Phenylbenzoquinone and acetic writhing tests in mice follow the methods described by Hendershot et al (J. Pharmacol. Exp. Ther. 1959, 125: 237-240): Mice are injected with phenylbenzoquinone (PBQ) (1.25 mg/kg i.p.) or acetic acid (0.5% i.p.). This treatment induces a recognizable writhing response in control animals. The number of writhes is counted for 10 minutes beginning 5 minutes after injection of PBQ or acetic acid.

[2] = system: formalin-induced pain response (flinching); assay: Formalin paw test in the mouse or rat; format: in vivo; settings: 30 mg/kg p.o.; intraplantar 5% formalin
Procedure: 1. Formalin paw test in the mouse or rat accorrding to Wheeler-Aceto et al., (Psychopharmacology 1991, 104: 35-44): Animals are given an intraplantar injection of 5% formalin (25 μl for the mouse, 50 μl for the rat) into the posterior left paw. This treatment induces a recognizable flinching response in control animals. The number of flinches is counted for 10 minutes, beginning immediately after injection of formalin (early phase) and again for 5 minutes in mice or 15 minutes in rats, beginning 20 minutes after the injection.

`Cl.N#Cc1ccc2[nH]cc(CCCCN3CCN(c4ccc5oc(C(N)=O)cc5c4)CC3)c2c1` [1-[4-(5-cyanoindol-3-yl)butyl]-4-(2-carbamoyl-benzofuran-5-yl)-piperazine hydrochloride] was tested, and the reduction of writhes [1] was 82% and the “reduction of the formalin-induced pain response” value [2] was 79%.
